“Also recorded” adds a separate entry of the source. Each block holds one molecule with its values, some of them ahead of it.
Columns and labels:
[1] = tested on: mesenchymal stem cells (MSCs); test: cardiogenic morphological transition of cultured MSCs (phase contrast microscope); type: cell-based, rat; conditions: for MSCs undergoing narrowing and becoming more refractive (cardiogenic morphological transition), D3 / MSCs undergoing narrowing and becoming more refractive (cardiogenic morphological transition), D7: 10 μg/ml; for MSCs undergoing narrowing and becoming more refractive (cardiogenic morphological transition), D3: treated for 3 days; for MSCs undergoing narrowing and becoming more refractive (cardiogenic morphological transition), D7: treated for 7 days; for activity in inducing cardiogenic differentiation of MSCs (in words): summary statements
Experimental: FIG. 14 presents photomicrographs that illustrate the activity of Car, HUYA-1 and HUYA-2, each 10 μg/ml, in inducing the cardiogenic morphological transition of mesenchymal stem cells (MSCs). D0, cultures of MSCs were set up before any treatment. The morphology of the MSCs was characterized by flat, irregular, low refracted and well-spread shapes (circles). D3, sample of the cultured MSCs were treated for 3 days with compounds as respectively labeled. […] D7, the cultured MSCs samples were treated for 7 days with compounds as respectively labeled. More MSCs (˜48%) in Car- and HUYA-1-treated cultures underwent narrowing and became more refractive (circles).
FIG. 15 provides a comparison, via photomicrographs, of HUYA-3 (10 μg/ml) with HUYA-4 (10 μg/ml) in inducing cardiogenic morphological transition of MSCs. Ctrl denotes the MSCs treated with vehicle (10% DMSO in equivalent volume). D0, the MSCs cultures were set before any treatment. The morphology of the MSCs was characterized by flat, irregular, low refracted and well-spread shapes (circles). D3, sample of the cultured MSCs were treated for 3 days with compounds as respectively labeled. […] D7, the cultured MSCs samples were treated for 7 days with compounds as respectively labeled. A similar amount of the MSCs (˜22%) in HUYA-4-treated cultures became narrowing and more refractive (ovals).
Testing was performed according to the procedures described in the following: The tibias/femur bones of rats were removed and the BM was flushed out of the bones with alpha IMDM culture medium. The BM was mixed well and centrifuged at 1,500 rpm for 5 minutes. The cell pellet was suspended with 3 ml culture medium, and the forming cell suspension was carefully put on 4 ml Ficoll solution, to minimize disturbance, and then was centrifuged at […] for 30 minutes. The second layer was transferred into a tube and washed twice with PBS to remove Ficoll (1,200 rpm for 5 minutes). The resulting cell pellet was resuspended in IMDM culture medium containing 10% heat-inactivated FBS (GIBCO) and 1% penicillin/streptomycin antibiotic mixture, and this was used for the tests. Non-adherent cells were discarded after 24 hours culturing. The adherent cells were cultured by changing medium every 3 days. The cells became nearly confluent after 14 days culture. To activate the cardiogenic morphology transition, the MSCs were cultured for 7 days in the presence of the HUYA-1, HUYA-2, HUYA-3, HUYA-4 or Car (10 μg/ml IMDM culture medium), respectively. The treating period-dependent morphological transition was evaluated, on a time-lapse basis, with a phase contrast microscope.

GFP-MSCs = test: differentiation of GFP-MSCs into beating cardiac myocytes in co-culture with rat cardiac myocytes; type: cell-based, mice; conditions: 10 μg/ml
From the text: FIG. 18 depicts HUYA-1-induced differentiation of GFP-MSCs into beating cardiac myocytes in co-culture system. This screenshot was taken from a video showing beating GFP-positive myocytes (enclosed areas) differentiated from the GFP-MSCs, which were co-cultured with rat cardiac myocytes and fibroblasts and then treated with HUYA-1. Since the culture contained non-GFP myocytes and fibroblasts and GFP-MSCs, any beating cells with GFP-positive signals that were identified must have differentiated from GFP-MSCs.
Bone marrow GFP-MSCs were isolated from the tibias/femur bones of GFP-transgenic mice. The GFP-MSCs were co-cultured with the cardiac myocytes isolated from neonatal SD rats in the presence of HUYA-1 (10 μg/ml IMDM culture medium) to mimic the cardiac micro-environment. The cultures were investigated daily, under a fluorescent microscope, to identify beating GFP-positive cells and to gauge the morphological transition of the cultured GFP-MSCs.

[2] = tested on: mesenchymal stem cells (MSCs); test: fluorescent immunocytochemistry for cardiogenic differentiation markers Mef2a and MHC beta in treated MSCs; type: cell-based, rat; conditions: 10 μg/ml; for treated cells with Mef2a-positive staining (D3): treated for 3 days; for treated cells with MHC beta-positive signals (D7): treated for 7 days
Experimental: FIG. 16 depicts immunofluorescence staining for expression of cardiogenic differentiation markers, Mef2a (fluorescence in D3) and beta, MHC beta (fluorescence in D7). D3 and D7, the cultured MSCs samples were treated with the compounds, as labeled, for 3 and 7 days, respectively. Neg is the negative control of MSCs culture, with no use of the first antibody specific to Mef2a or MHC beta, showing negative signals of Mef2a (D3) and MHC (D7) staining Ctrl represents the cultured MSCs treated with the equivalent volume of 10% DMSO, with almost no positive Mef2a (D3) and MHC beta (D7) signals observed.
FIG. 17 depicts immunofluorescence staining for expressions of early cardiogenic differentiation marker, Mef2a (fluorescence in D3) and cardiac specific myosin heavy chain beta, MHC (fluorescence in D7). D3 and D7, the cultured MSCs samples were treated with the compounds, as labeled, for 3 and 7 days, respectively.
The method for the fluorescent-immunostaining is summarize briefly: The cultured cells were fixed with 4% paraformaldehyde in PBS for 15 minutes and permeabilized with 0.5% Triton X-100 for 15 minutes. Dilution of antibodies was as follows: rabbit polyclonal antibodies specific to rat MEF2a (1:500) and mouse monoclonal antibodies specific to MHC (1:500) (both antibodies from Abcam®). Secondary antibodies were goat anti-mouse and rabbit anti-IgG antibodies conjugated with fluorophore (FITC 495/528 and Cy5 650/667, products of Abcam®), respectively. The nuclei were stained with DAPI. Examined by fluorescent microscopy were the cardiogenic differentiation-associated morphological transition and specific marker protein expression of the cultured MSCs.

[3] = solubility in cell culture medium; type: physicochemical; conditions: compared with HUYA-1
From the text: The DMSO concentration was increased from 5% to 10% to increase the solubility of HUYA-4.

[4] = stress tests of the separated cardiogenin isomers; conditions: storage in MTBE/IPA=50:50 or as solids at 40° C. for 24 hours
[5] = listed as cardiogenin major isomer

Molecule: C[C@@H]1CC[C@]2(C(=O)OC3OC(CO)C(O)C(O)C3O)CC[C@]3(C)C(=CCC4[C@@]5(C)C[C@@H](O)[C@H](O)[C@@](C)(CO)C5CC[C@]43C)C2[C@]1(C)O (stereo partly shown) [HUYA-1, cardiogenin]
MSCs undergoing narrowing and becoming more refractive (cardiogenic morphological transition), D3 [1]: ~31% | MSCs undergoing narrowing and becoming more refractive (cardiogenic morphological transition), D7 [1]: ~48% | cultured MSCs induced into cardiogenic differentiation ([1]; cell culture, summary of FIGS. 14 and 15): more than 20% | activity in inducing cardiogenic differentiation of MSCs (in words) [1]: most active compound | activity in inducing cardiogenic differentiation of MSCs (in words) [1, 5]: substantially enhanced differentiation into cardiomyocytes; also recorded: active | activity in inducing cardiogenic differentiation of MSCs (in words) ([1]; listed as isolated cardiogenin major isomer): biologically active | differentiation of MSCs into beating cardiac myocytes (GFP-MSCs): induced cardiogenic differentiation of the GFP-MSCs to form beating cardiac myocytes; also recorded: can enhance the cardiogenic differentiation of MSCs into beating cardiac myocytes | differentiation of MSCs into beating cardiac myocytes (GFP-MSCs; [5]): beating cardiomyocytes differentiate from MSCs | treated cells with Mef2a-positive staining (D3) [2]: approximately 15% | treated cells with MHC beta-positive signals (D7) [2]: 20%

solubility in cell culture medium [3]: lower solubility
Molecule: C[C@@H]1CC[C@]2(C(=O)O)CC[C@]3(C)C(=CCC4[C@@]5(C)C[C@@H](O)[C@H](O)[C@@](C)(CO)C5CC[C@]43C)C2[C@]1(C)O (stereo partly shown) [HUYA-4]
MSCs undergoing narrowing and becoming more refractive (cardiogenic morphological transition), D3 [1]: ~20% | MSCs undergoing narrowing and becoming more refractive (cardiogenic morphological transition), D7 [1]: ~22% | activity in inducing cardiogenic differentiation of MSCs (in words) [1]: induced MSCs into cardiogenic differentiation | activity in inducing cardiogenic differentiation of MSCs (in words) ([1]; listed as aglycone): substantially enhanced differentiation into cardiomyocytes | differentiation of MSCs into beating cardiac myocytes (GFP-MSCs): beating cardiomyocytes differentiate from MSCs | treated cells with Mef2a-positive staining (D3) [2]: ~6% | treated cells with MHC beta-positive signals (D7) [2]: ~8%

stability under stress [4]: The same picture was obtained
Molecule: cardiogenin [HUYA-2]
MSCs undergoing narrowing and becoming more refractive (cardiogenic morphological transition), D3 [1]: did not show clear morphological changes | MSCs undergoing narrowing and becoming more refractive (cardiogenic morphological transition), D7 [1]: no significant morphological change | activity in inducing cardiogenic differentiation of MSCs (in words) [1]: essentially inactive | activity in inducing cardiogenic differentiation of MSCs (in words) ([1]; listed as minor isomer): inactive | treated cells with Mef2a-positive staining (D3) [2]: almost no positive signals | treated cells with MHC beta-positive signals (D7) [2]: ~3%

Reference: patent publication US20130345159A1, “PURIFIED CARDIOGENIN ISOMER AND RELATED METHODS” (HUYA BIOSCIENCE INTERNATIONAL LLC, priority 2010, published 2013)
